US10160771B2, “Hepatitis C virus inhibitors and uses thereof in preparation of drugs” (priority 2014, dated 2018)

Assays:
[1] = tested on: HCV genotype 1a (HCV-1a) replicon cells; test: HCV genotype 1a replicon luciferase assay (EC50); format: cell-based, hepatitis C virus genotype 1a (H77 clone); details: Hepatitis C virus, 72 h, 3 days, luciferase (Bright-Glo)
Method: (§1) The EC50 and CC50 values of anti-HCV compounds were determined by HCV genotype 1a (HCV-1a) and 1B (HCV-1b) stable transfer replication (replicon) cells. The source of genotype 1a replicon is H77 clones containing K1691R, K2040R and S2204I adaptive mutations. The source of genotype 1b replicon is Con1 clones containing E1202G, T1280I and K1846T adaptive mutations.
(§2) HCV 1a (HCV-1a) and 1b (HCV-1b) gene subtype replicon system contains the related HCV gene subtype non structural protein gene, G418 resistance gene NEO and luciferase gene, which results in that HCV related protein and luciferase can be stably expressed in cells. By detecting the level of expression of luciferase gene, the level of HCV replication can be determined. Therefore, the system is used as a model for screening the activity of anti-HCV compound in vitro.
(§3) HCV Replicon Cell Lines: HCV-1a and HCV-1b Cells
(§4) The compound powder was dissolved in 100% DMSO. Then the compound was diluted 5 times with 6 points, and added into the cell plate with Echo liquid handler. Ensure the final concentration of DMSO was 0.5%. Each compound was tested in double holes. Maximum initial concentration was 100, 10 or 1 nM, 5 times dilution, 6 points.
(§5) b) Cell Culture (HCV-1a or HCV-1b Replicon Cell):
(§6) 1) absorbing the culture supernatant of the cell culture and washing the cells with 10 mL PBS.
(§7) 2) adding preheated pancreatin to the washed cell culture flasks, rotating culture bottle to make the bottom of the culture bottle uniformly covered by pancreatin, then placed into 37° C., 5% CO2 incubator to digest.
(§8) 3) suspending cells in each T150 culture flask with 10-15 mL culture medium, absorbing 0.1 mL liquid and diluting 2 times by trypan blue solution as counted.
(§9) 4) diluting cells to 8×10^4/mL with the culture medium, adding the diluted cells into the compound-containing 96-well plate (Greiner, Cat.#655090) (100 μL/well, 8000 cells/well) with automatic liquid separator (Thermo Scientific). Then place into a 37° C., 5% CO2 incubator for 3 days. Cell control well: no compound, only containing 0.5% DMSO.
(§10) 6) then adding luciferase luminescence substrate Bright-Glo, after incubation for 5 minutes, detecting the luciferase activity by chemical luminescence detection system Envison (wavelength>700 nm); analyzing the anti-HCV inhibitory activity of the compounds according to luciferase data, which was used to calculate EC50 values.
(§11) The EC50 or CC50 values were obtained by nonlinear fitting analysis on inhibition percentage (inh %) data with GraphPad Prism software.

[2] = tested on: HCV genotype 1b (HCV-1b) replicon cells; test: HCV genotype 1b replicon luciferase assay (EC50); format: cell-based, hepatitis C virus genotype 1b (Con1 clone); details: Hepatitis C virus, 72 h, 3 days, luciferase (Bright-Glo)
Method: as §1, §2, §3, §4, §5, §6, §7, §8, §9, §10, §11

[3] = Cell Titer-fluor cell activity assay in HCV-1b replicon cells (CC50); format: cell-based
Method: as §1, §3, §4, §5, §6, §7, §8, §9
5) adding chemiluminescent substrate Cell Titer-fluor to the cell well, after incubation for 30 minutes, detecting the signal by chemiluminescence detection system Envison (Ex at 405 nm and read at 515 nm). The effect of the compounds on the activity of HCV replicon cells was analyzed according to the luminescence data, which was used to calculate the CC50 values.
as §11

Structure (SMILES)	EC50 [1] [nM]	EC50 [2] [nM]	CC50 at 3 days [3] [nM]
COC[C@H](NC(=O)OC)C(=O)N1CCC[C@H]1c1ccc(-c2ccc(-c3ccc(-c4cnc([C@@H]5CCCN5C(=O)[C@@H](NC(=O)OC)[C@@H](C)O)[nH]4)cc3)cc2)[nH]1 [AG_108]	0.101 to 1	0.001 to 0.1	> 1
COC(=O)N[C@H](C(=O)N1CCC[C@H]1c1ncc(-c2ccc3c(c2)[C@@](C)(O)c2cc(-c4cnc(C5C6CCC(C6)[C@H]5C(=O)NCc5cccnc5)[nH]4)ccc2-3)[nH]1)C(C)C (stereo partly drawn) [AA_241_A]	10 to 100	0.101 to 1	> 1
COC(=O)N[C@H](C(=O)N1CCC[C@H]1c1ncc(-c2ccc(-c3ccc(-c4cnc([C@H]5C6CCC(C6)[C@@H]5C(=O)NCc5cccnc5C(F)(F)F)[nH]4)cc3)cc2)[nH]1)C(C)C (stereo partly drawn) [AA_216_A]	10 to 100	0.001 to 0.1	> 1
COC(=O)N[C@H](C(=O)N1CCC[C@H]1c1ncc(-c2ccc(-c3ccc(-c4cnc([C@H]5C6CCC(C6)[C@@H]5C(=O)NCc5cncc(C(C)C)c5)[nH]4)cc3)cc2)[nH]1)C(C)C (stereo partly drawn) [AA_235_A]	10 to 100	0.001 to 0.1	> 1
COC(=O)N[C@H](C(=O)N1CCC[C@H]1c1ncc(-c2ccc(-c3ccc(-c4cnc(C5=C(C(=O)N(NC(=O)OC)C(C)C)CCC5)[nH]4)cc3)cc2)[nH]1)C(C)C [AA_007]	–	1 to 10	> 100
COC(=O)N[C@H](C(=O)N1[C@H](c2ncc(-c3ccc(-c4ccc5cc(-c6cnc(C7CCCC[C@H]7C(=O)N(NC(=O)OC)C(C)C)[nH]6)ccc5c4)cc3)[nH]2)COC1(C)C)C(C)C (stereo partly drawn) [AA_072]	–	10 to 100	> 10
COC(=O)N[C@H](C(=O)N1CC2(C[C@H]1c1ncc(-c3ccc(-c4ccc5cc(-c6cnc(C7CCCC[C@H]7C(=O)N(NC(=O)OC)C(C)C)[nH]6)ccc5c4)cc3)[nH]1)OCCO2)C(C)C (stereo partly drawn) [AA_073]	–	1 to 10	> 10
COC(=O)N[C@H](C(=O)N1CCC[C@H]1c1ncc(-c2ccc(-c3ccc(-c4cnc(C5CCCC5C(=O)N(NC(=O)OC)C(C)C)[nH]4)cc3)cc2)[nH]1)C(C)C (stereo partly drawn) [AA_008]	–	1 to 10	> 100
COC(=O)N[C@H](C(=O)N1CCC[C@H]1c1ncc(-c2ccc(-c3ccc(-c4cnc([C@@H]5CCCC[C@H]5C(=O)N(NC(=O)OC)C(C)C)[nH]4)cc3)cc2)[nH]1)C(C)C [AA_091_A]	–	1 to 10	> 10
COC(=O)NC(C(=O)C1CCCCC1c1ncc(-c2ccc(-c3ccc(-c4[nH]c([C@@H]5CCCN5C(=O)[C@@H](NC(=O)OC)C(C)C)c5c4CCC5)cc3)cc2)[nH]1)C(C)C (stereo partly drawn) [AA_100]	–	10 to 100	> 10
COC(=O)NC(C(=O)N1CCCC1c1[nH]c(-c2ccc(-c3ccc(-c4cnc(C5CCCC[C@@H]5C(=O)N(NC(=O)OC)C(C)C)[nH]4)cc3)cc2)c2c1CCC2)C1CCOCC1 (stereo partly drawn) [AL_003]	–	10 to 100	> 10
COC(=O)NC(C(=O)N1CCCC1c1ncc(-c2ccc3cc(-c4cnc(C5CCCC[C@H]5C(=O)N(NC(=O)OC)C(C)C)[nH]4)ccc3c2)[nH]1)C1CCOC1 (stereo partly drawn) [AA_078]	–	10 to 100	> 10
COC(=O)N[C@H](C(=O)N1CCC[C@H]1c1ncc(-c2ccc(-c3ccc(-c4cnc(C5CCCC[C@@H]5C(=O)N(NC(=O)OC)C(C)C)[nH]4)c(F)c3)cc2)[nH]1)C(C)C (stereo partly drawn) [AA_118]	–	1 to 10	> 10
COC(=O)N[C@H](C(=O)N1CCC[C@H]1c1ncc(-c2ccc(-c3ccc(-c4cnc(C5=C(C(=O)N(NC(=O)OC)C(C)C)CCCC5)[nH]4)cc3)cc2)[nH]1)C(C)C [AA_014]	–	1 to 10	> 100
COC(=O)NN(C(=O)[C@H]1CCCCC1c1ncc(-c2ccc(-c3ccc4cc(-c5cnc(C6CCCC[C@H]6C(=O)N(NC(=O)OC)C(C)C)[nH]5)ccc4c3)cc2)[nH]1)C(C)C (stereo partly drawn) [AA_074]	–	10 to 100	> 10
COC(=O)NN(C(=O)[C@@H]1CCCCC1c1ncc(-c2ccc3cc(-c4ccc(-c5cnc(C6CCCC[C@@H]6C(=O)N(CC(=O)NC6CC6)C(C)C)[nH]5)cc4)ccc3c2)[nH]1)C(C)C (stereo partly drawn) [AA_075]	–	10 to 100	> 10
